Data published in patent publication US11318141B2, “Methods and compositions related to STK1-targeted small molecules as antibiotic resistance breakers” (Ohio State Innovation Foundation, priority 2017, dated 2022).

Legend:
[1] = system: S. aureus MW2ΔSTP1 biofilms; experiment: Biofilm formation, crystal violet stain method; assay type: cell-based, Staphylococcus aureus; conditions: 25 μM
Procedure: (§1) The ability to form biofilms by S. aureus MW2 strain in the absence and presence of Inh2-B1 was determined using the crystal violet stain method. Briefly, the assay was carried out in 24-well tissue culture plates in a final volume of 500 μl of TSB broth with or without Inh2-B1 (25 μM). The culture plates were then seeded with 1:1000 dilution of the freshly grown S. aureus cultures to late log phase (O.D600=0.8) and further incubated for 48 h. At the end of incubation, the culture medium from each well was carefully removed and stained with 1% Crystal violet for 5 min. The unbound stain was then removed by repeated washings with distilled water and air dried. The stained biofilms were then extracted and dissolved in 500 μl 100% of isopropanol. Aliquots of fully suspended biofilms (100 μl/well) in isopropanol from each well were spectrophotometrically (λ=550 nm) analyzed using a microtiter plate reader (Molecular Devices). The test samples were analyzed after subtracting the background values obtained from wells containing an only medium. All results were obtained with three independent cultures each in three wells. In another set of experiments. Inh2-B1 (25 μM) was added to the 48 h-grown established biofilms of S. aureus MW2 to determine the impact of Inh2-B1 on the preformed biofilms and its ability to disrupt or further formation of biofilms. For this, old medium was carefully removed to allow the minimal loss of the loosely attached apical part of the preformed biofilms and replace with 2 ml of fresh TSB medium with or without 25 μM Inh2-B1 inhibitor and incubated further for 48 h at 37° C. Subsequently, the biofilm formation or its disruption was quantitatively estimated as described above and statistically evaluated.

[2] = system: S. aureus MW2 wild-type biofilms; experiment: Biofilm formation, crystal violet stain method; assay type: cell-based, Staphylococcus aureus; conditions: 25 μM
Procedure: as §1

S. pyogenes SP-STK = experiment: In vitro autophosphorylation / kinase activity of SP-STK; assay type: biochemical
S. aureus MW2-WT = experiment: S. aureus mouse septicemia model, therapeutic study; assay type: in vivo, CD-1 mice
Procedure: (§2) The virulence potential of the wild-type S. aureus MW2 wild-type and corresponding MW2ΔSTK1 and MW2ΔSTP1 mutants was assessed using the mouse-septicemia model. CD-1 mice (5 weeks old, 20-22 g. Charles River Laboratories, ten female mice/group and housed in a group of 5 mice/cage) were lightly anesthetized with isoflurane and injected retro-orbitally with the S. aureus MW2 or isogenic MW2Δstk1 mutant (4×10^8 CFU/0.1 ml of PBS). […] For therapeutic studies, the animals were first challenged with MW2-WT strain as described above and subsequently administered with antibiotic and/or small molecule compounds. The latter was started 4 h after the challenge and subsequently 12 h apart for 4 days post infection. Thus, Inh2-B1 (5 mg/kg body weight in 0.3 ml vehicle buffer), Ceftriaxone (10 and 25 mg/kg body weight in 0.3 ml vehicle buffer). Cefotaxime (10 mg/kg body weight), combination of Ceftriaxone (10 mg and 25 mg/kg body weight in 0.3 ml vehicle buffer) or Cefotaxime (10 mg/kg body weight) with Inh2-B1 (5 mg/kg body weight in 0.3 ml vehicle buffer), or 0.3 ml of vehicle-buffer (50 mM Tris/HCl, pH 8.8, 1.67% [v/v] DMSO). Early removal and euthanasia criteria were applied to all experimental mice showing penultimate sign(s) of the unrecoverable stage of illness, including ruffled skin with a hunch back, loss of more than 20% of body mass as compared to unchallenged mice receiving mock treatment, dyspnea, and labored gasping. All experiments were performed twice. Data were combined, and percentage survival in each group was statistically evaluated by the Log-Rank test (Kaplan-Meier) using the GraphPad Prism 6 software. P<0.05 was treated as a significant difference. On Day 3 P.I., 3-6 mice from different groups receiving treatment with a single antibiotic or combination therapy were euthanized and sacrificed, and kidneys were […] for determining the bacterial load, which was determined by counting the colony forming units in the homogenized tissue in sterile PBS buffer.

[3] = system: cell wall hydrolase genes in S. aureus MW2-WT; experiment: qRT-PCR mRNA expression of cell wall hydrolase genes; assay type: cell-based, Staphylococcus aureus; conditions: treated MW2-WT vs untreated
Procedure: The late log phase-grown S. aureus strains MW2 wild-type, and isogenic ΔSTK1 and ΔSTP1 mutant strains, as well as S. aureus MW2 strain treated with 25 μM Inh2-B1 for 4 h, were subjected to lysostaphin treatment to obtain whole cell lysate. Total RNA from the resulting lysate was first extracted by TRIZOL™ (Invitrogen/Thermo) and treated with RNase-free DNaseI. High-quality total RNA (RIN>7.0, and 260/280 and 260/230 ratios >1.8) was then extracted by using RNA purification kit (Norgen, Canada) per manufacturer's instructions and confirmed by an Agilent 2100 Bioanalyzer (Agilent Technologies, Palo Alto, Calif.). The first-strand cDNA from the total RNA was generated, and relative mRNA concentration was quantitated using SYBR Green qRT-PCR master mix and specific primers, using a Light Cycler® 480 real-time PCR machine (Table 2). The results obtained for all samples (three biological replicates each in triplicates) were normalized to corresponding values of 16S rRNA. All results including relative fold-changes in the mRNA expression (mutant vs. wild-type or treated vs. nontreated) for individual genes were analyzed using Exor4 software (Roche Applied Science). Changes in expression ratios by more than 2-fold (up- or down-regulation) were considered as significant.

[4] = Tolerability in mice treated with compound only; assay type: in vivo, CD-1 mice; conditions: 5 mg/kg i.p., ten-day observation
Procedure: as §2, with “Cefotaxime (10 mg/kg body weight), combination of Ceftriaxone (10 mg and 25 mg/kg body weight in 0.3 ml vehicle buffer) or Cefotaxime (10 mg/kg body weight) with Inh2-B1 (5 mg/kg body weight in 0.3 ml vehicle buffer), or 0.3 ml of vehicle-buffer (50 mM Tris/HCl, pH 8.8, 1.67% [v/v] DMSO). Early removal and euthanasia criteria were applied to all experimental mice showing penultimate sign(s) of the unrecoverable stage of illness, including ruffled skin with a hunch back, loss of more than 20% of body mass as compared to unchallenged mice receiving mock treatment, dyspnea, and labored gasping. All experiments were performed twice.” left out, “P<0.05 was treated as a significant difference.” left out

[5] = Inh2-B1 5 mg/kg plus Cefotaxime 10 mg/kg

COC(=O)c1ccc2c(=O)[nH]c3c(C(=O)Nc4ccccc4)sc(=S)n3c2c1 [Inh2-B1, Methyl 5-oxo-3-(phenylcarbamoyl)-1-thioxo-4,5dihydro[1,3]thiazolo[3,4-a]quinazoline-8-carboxylate]
biofilm formation in the presence of Inh2-B1 ([1]; 48 h): significantly decreased formation of biofilms
effect on preformed biofilms ([1]; further 48 h): significant reduction in biofilm formation
biofilm formation in the presence of Inh2-B1 ([2]; 48 h): significantly decreased formation of biofilms
effect on preformed biofilms ([2]; further 48 h): significant reduction in biofilm formation
inhibition of the kinase activity of SP-STK of S. pyogenes (S. pyogenes SP-STK): did not inhibit the kinase activity
number of survived animals at the end of 10 days, Cefotaxime combination compared with Ceftriaxone combination (S. aureus MW2-WT; [5]): significantly low
survival of mice, combination therapy with Cefotaxime (Inh2-B1+CT) (S. aureus MW2-WT; [5]): significantly prolonged the survival of mice
survival, combination therapy with Ceftriaxone (S. aureus MW2-WT; Inh2-B1 5 mg/kg plus Ceftriaxone 10 or 25 mg/kg i.p., ten days): 60%
S. aureus MW2 burden in kidneys (S. aureus MW2-WT; day 3 P.I., combined therapy (Inh2-B1 with Ceftriaxone or Cefotaxime) vs single or no therapy): significantly low
expression of cell wall hydrolase-encoding genes [3]: down-regulation of cell wall hydrolase-encoding genes
signs of illness in mice treated with only the compound [4]: no morbid signs of illness
survival of mice treated with only the compound [4]: survived all throughout the observation period
